# Legend:
# [1] = CNS MPO desirability score; conditions: from experimental and calculated data, method of Wager et al. (2016); scale 0-6
# Description: ACDLAbs PhysChem Suite 14.0 software (Advanced Chemistry Development, Inc., Toronto, ON, Canada) was used for the calculation of Mw, tPSA, and HBD values. The CNS MPO score calculation method was described by [Wager et al. (2016)].
# Central nervous system multiparameter optimization desirability score was calculated as described by [Wager et al. (2016)], utilizing all collected experimental and calculated data. This scoring tool was set on ranges of desirable property space and linear transformational functions with values between 0 and 1 (defined as T0 for each property). Rating each parameter equally, the collective score ranges from 0 to 6, while a score higher than 4 is desirable ([Rankovic, 2015]).
# [2] = tested on: docetaxel (DTX)-induced senescent BJ cells; assay: Crystal violet and resazurin assays in docetaxel-induced senescent BJ; format: cell-based, human
# Description: To obtain ionizing radiation (IR)-induced senescent cells, proliferating RPE-1 cells were exposed to a single dose of X-rays (20 Gy) using Pantak HF160 (Gulmay, Surrey, UK) X-ray instrument equipped with Pantak Seifert HF320 generator, MXR-161 X-ray tube (Comet AG, Flamatt, Switzerland), and an aluminum filter using current 1–10 mA. After irradiation, the cells were cultured for an additional 7 days until the development of the senescent phenotype ([Salovska et al., 2022]). To induce docetaxel-induced senescence (DIS), BJ cells were exposed to 5 nM docetaxel for 7 days, as described previously ([Sapega et al., 2018]). […]
# For the crystal violet assay, the cells were washed twice with 150 μL PBS and stained with 30 μL 0.5% (w/v) crystal violet in 20% methanol for 15 mins. […] The absorbance was read at 595 nm using a microplate reader (Envision, PerkinElmer, Waltham, MA, USA). The absorbance of crystal violet in treated cells was expressed as a percentage of absorbance in untreated cells. Each condition was measured at least in triplicate.
# For the resazurin assay, 200 μL of the culture medium of each well was exchanged for 100 μL of resazurin (stock solution 30 mg/mL; Sigma, St. Louis, MO, USA) diluted 10 times in the culture medium, and the cells were incubated at 37°C for 1–3 h. Reading of fluorescence was done using a microplate reader (PerkinElmer, Waltham, MA, USA). […]
structure (smiles),measurement,setting,value
"Nc1ccc(C(=O)Nc2cccc(-c3c[nH]c4ncccc34)c2)cc1O [Compound 3, N-(3-(1H-pyrrolo[2,3-b]pyridin-3-yl)phenyl)-4-amino-3-hydroxybenzamide]",MPO (CNS MPO score),[1],4.5
same,selectivity for senescent versus proliferating cells,"[2]; DIS-BJ vs proliferating BJ, crystal violet and resazurin",non-selective manner
same,sensitivity of senescent cells (crystal violet and resazurin),"[2]; DTX-induced senescent BJ, 0–100 μM, 24 h",significantly sensitive

# Source: publication PMC9767416, “Discovery of small molecule mechanistic target of rapamycin inhibitors as anti-aging and anti-cancer therapeutics” (Frontiers in Aging Neuroscience, 2022)
